Test results taken from patent publication US20230065745A1, “PIPERIDINE-2,6-DIONE DERIVATIVES WHICH BIND TO CEREBLON, AND METHODS OF USE THEREOF” (Captor Therapeutics S.A., priority 2019, published 2023).

Columns and labels:
[1] = biological target: CRBN-DDB1 protein complex (Homo sapiens, UniProt Q96SW2); experiment: Fluorescence Polarization (FP) assay, displacement of Cy5-labelled thalidomide; details: 25 nM CRBN-DDB1, 5 nM Cy5-labelled thalidomide, read-out: CRBN binding Ki
Method: CRBN-DDB1 protein complex was mixed with Cy5-labelled thalidomide and a compound to be tested (the “test compound”). […] The test solution was added to a 384-well assay plate.
The plate was spun-down (1 min, 1000 rpm, 22° C.) and then shaken using a VibroTurbulator for 10 min at room temperature (20-25° C.), with the frequency set to level 3. The assay plate with protein and the tracer was incubated for 60 min at room temperature (20-25° C.) prior to read-out with a plate reader.
The FP experiment was carried out with various concentrations of the test compounds in order to measure Ki values.

IKZF1 = IKZF1 degradation assay, H929 cell line (Western blot densitometry); assay type: cell-based; details: 20 μM
Method: Cells were seeded on 6- or 12-well plates, and the compounds to be tested were added at the desired concentration range. […] After 6 or 24 h incubation (3TC, 5% CO2), cells were harvested, washed and cell lysates were prepared using RIPA lysis buffer. The amount of protein was determined via BCA assay, and the appropriate quantity was then loaded on the precast gel for the protein separation. After primary and secondary Ab staining, the membranes were washed and signals developed. The densitometry analysis was implemented to obtain the numeric values used later in the protein level evaluation process. […] The treatment with all compounds was carried out for 24 h.

Chain of CRBN-DDB1 protein complex (Q96SW2 whole entry): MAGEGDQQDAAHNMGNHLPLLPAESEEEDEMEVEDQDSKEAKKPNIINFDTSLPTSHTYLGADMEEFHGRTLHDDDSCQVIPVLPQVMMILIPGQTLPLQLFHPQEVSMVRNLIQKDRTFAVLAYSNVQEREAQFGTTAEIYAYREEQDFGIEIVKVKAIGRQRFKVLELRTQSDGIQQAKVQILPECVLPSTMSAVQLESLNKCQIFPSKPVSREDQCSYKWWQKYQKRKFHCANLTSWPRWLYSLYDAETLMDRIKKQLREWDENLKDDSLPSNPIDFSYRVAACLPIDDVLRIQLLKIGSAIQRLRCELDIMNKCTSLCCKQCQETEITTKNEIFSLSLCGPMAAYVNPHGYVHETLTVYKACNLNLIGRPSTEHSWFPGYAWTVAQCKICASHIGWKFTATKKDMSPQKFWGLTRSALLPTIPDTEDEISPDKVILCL
Chain of CRBN-DDB1 protein complex (Q16531 whole entry partner): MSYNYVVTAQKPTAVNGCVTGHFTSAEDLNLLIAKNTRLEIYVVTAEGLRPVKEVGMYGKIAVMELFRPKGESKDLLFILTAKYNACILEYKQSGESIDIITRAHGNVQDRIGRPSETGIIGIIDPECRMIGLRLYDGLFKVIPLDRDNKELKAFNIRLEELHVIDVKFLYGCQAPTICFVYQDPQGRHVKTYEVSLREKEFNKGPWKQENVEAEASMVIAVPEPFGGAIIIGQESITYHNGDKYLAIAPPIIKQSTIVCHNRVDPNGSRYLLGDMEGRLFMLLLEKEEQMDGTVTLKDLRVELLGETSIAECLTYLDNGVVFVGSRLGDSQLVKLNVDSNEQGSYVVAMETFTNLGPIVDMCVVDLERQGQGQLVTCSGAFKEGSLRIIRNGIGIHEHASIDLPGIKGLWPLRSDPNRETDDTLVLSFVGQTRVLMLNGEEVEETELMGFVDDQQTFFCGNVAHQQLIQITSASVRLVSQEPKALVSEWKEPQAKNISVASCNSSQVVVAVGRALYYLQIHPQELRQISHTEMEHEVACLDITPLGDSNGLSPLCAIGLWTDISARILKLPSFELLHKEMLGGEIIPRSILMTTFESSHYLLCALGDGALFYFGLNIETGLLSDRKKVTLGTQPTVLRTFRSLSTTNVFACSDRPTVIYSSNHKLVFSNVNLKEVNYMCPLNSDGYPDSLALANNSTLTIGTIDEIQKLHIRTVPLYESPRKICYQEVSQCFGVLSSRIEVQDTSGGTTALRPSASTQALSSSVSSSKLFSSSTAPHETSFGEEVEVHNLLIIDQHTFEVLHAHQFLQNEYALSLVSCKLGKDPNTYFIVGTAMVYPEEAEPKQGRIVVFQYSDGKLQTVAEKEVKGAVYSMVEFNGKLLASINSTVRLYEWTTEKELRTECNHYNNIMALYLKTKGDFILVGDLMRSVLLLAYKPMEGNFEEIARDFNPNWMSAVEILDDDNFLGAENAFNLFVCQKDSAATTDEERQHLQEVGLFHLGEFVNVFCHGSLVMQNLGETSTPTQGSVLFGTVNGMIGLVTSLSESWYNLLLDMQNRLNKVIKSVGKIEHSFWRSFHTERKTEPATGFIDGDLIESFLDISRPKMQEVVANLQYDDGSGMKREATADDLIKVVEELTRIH

Structure (SMILES) | Ki [1] [µM] | % of IKZF1 protein reduction, IKZF 1 (24 H, 20 μM) (IKZF1)
O=C1CCC(NC(=O)c2cc(Cl)sc2NC(=O)C2CC2)C(=O)N1 (stereo not drawn) [Compound 6, 5-chloro-2-cyclopropaneamido-N-(2,6-dioxopiperidin-3-yl)thiophene-3-carboxamide] | < 5 | ≤25% (≤25% for 0-25% of IKZF1 protein reduction)
CC(=O)Nc1cc(Cl)sc1C(=O)NC1CCC(=O)NC1=O (stereo not drawn) [Compound 18, 5-chloro-N-(2,6-dioxopiperidin-3-yl)-3-acetamidothiophene-2-carboxamide] | 10 to 50 | ≤25% (≤25% for 0-25% of IKZF1 protein reduction)
COc1csc(NC(C)=O)c1C(=O)NC1CCC(=O)NC1=O (stereo not drawn) [Compound 8, N-(2,6-dioxopiperidin-3-yl)-2-acetamido-4-methoxythiophene-3-carboxamide] | 5 to 10 | ≤25% (≤25% for 0-25% of IKZF1 protein reduction)
CNc1sc(Cl)cc1C(=O)NC1CCC(=O)NC1=O (stereo not drawn) [Compound 16, 5-chloro-N-(2,6-dioxopiperidin-3-yl)-2-(methylamino)thiophene-3-carboxamide] | < 5 | ≤25% (≤25% for 0-25% of IKZF1 protein reduction)
CCCCC(=O)Nc1sc(Cl)cc1C(=O)NC1CCC(=O)NC1=O (stereo not drawn) [Compound 3, 5-chloro-N-(2,6-dioxopiperidin-3-yl)-2-pentanamidothiophene-3-carboxamide] | < 5 | ≤25% (≤25% for 0-25% of IKZF1 protein reduction)
C[C@H](O)C(=O)Nc1sc(Cl)cc1C(=O)NC1CCC(=O)NC1=O (stereo partly drawn) [Compound 17, 5-chloro-N-(2,6-dioxopiperidin-3-yl)-2-[(2S)-2-hydroxypropanamido]thiophene-3-carboxamide] | 10 to 50 | ≤25% (≤25% for 0-25% of IKZF1 protein reduction)
CC(=O)Nc1sccc1C(=O)N(C)C1CCC(=O)NC1=O (stereo not drawn) [Compound 5, N-(2,6-dioxopiperidin-3-yl)-2-acetamido-N-methylthiophene-3-carboxamide] | 10 to 50 | ≤25% (≤25% for 0-25% of IKZF1 protein reduction)
CC(=O)Nc1sc(C#N)cc1C(=O)NC1CCC(=O)NC1=O (stereo not drawn) [Compound 9, 5-cyano-N-(2,6-dioxopiperidin-3-yl)-2-acetamidothiophene-3-carboxamide] | < 5 | ≤25% (≤25% for 0-25% of IKZF1 protein reduction)
CC(C)(C)OC(=O)Nc1sccc1C(=O)NC1CCC(=O)NC1=O (stereo not drawn) [Compound 1, tert-butyl (3-((2,6-dioxopiperidin-3-yl)carbamoyl)thiophen-2-yl)carbamate] | 10 to 50 | ≤25% (≤25% for 0-25% of IKZF1 protein reduction)
CC(=O)Nc1ccsc1C(=O)NC1CCC(=O)NC1=O (stereo not drawn) [Compound 7, N-(2,6-dioxopiperidin-3-yl)-3-acetamidothiophene-2-carboxamide] | 5 to 10 | ≤25% (≤25% for 0-25% of IKZF1 protein reduction)
CC(=O)Nc1scc(Cl)c1C(=O)NC1CCC(=O)NC1=O (stereo not drawn) [Compound 43, 4-chloro-N-(2,6-dioxopiperidin-3-yl)-2-acetamidothiophene-3-carboxamide] | 10 to 50 | ≤25% (≤25% for 0-25% of IKZF1 protein reduction)
CC(=O)N(C)c1sccc1C(=O)NC1CCC(=O)NC1=O (stereo not drawn) [Compound 2, N-(2,6-dioxopiperidin-3-yl)-2-(N-methylacetamido)thiophene-3-carboxamide] | – | ≤25% (≤25% for 0-25% of IKZF1 protein reduction)

Now from value to compound, other results behind:

Ki [1] [µM] | Structure (SMILES) | % of IKZF1 protein reduction, IKZF 1 (24 H, 20 μM) (IKZF1)
< 5 | CC(=O)Nc1sc(C2CC2)cc1C(=O)NC1CCC(=O)NC1=O (stereo not drawn) [Compound 44, 5-cyclopropyl-N-(2,6-dioxopiperidin-3-yl)-2-acetamidothiophene-3-carboxamide] | ≤25% (≤25% for 0-25% of IKZF1 protein reduction)
5 to 10 | O=C1CCC(NC(=O)c2cc(Cl)sc2NC(=O)Cc2ccccc2)C(=O)N1 (stereo not drawn) [Compound 46, 5-chloro-N-(2,6-dioxopiperidin-3-yl)-2-(2-phenylacetamido)thiophene-3-carboxamide] | ≤25% (≤25% for 0-25% of IKZF1 protein reduction)
5 to 10 | CC(=O)Nc1sc(C2CC2)c(Cl)c1C(=O)NC1CCC(=O)NC1=O (stereo not drawn) [Compound 19, 4-chloro-5-cyclopropyl-N-(2,6-dioxopiperidin-3-yl)-2-acetamidothiophene-3-carboxamide] | ≤25% (≤25% for 0-25% of IKZF1 protein reduction)
10 to 50 | CSc1ncc(C(=O)NC2CCC(=O)NC2=O)s1 (stereo not drawn) [Compound 76, N-(2,6-dioxopiperidin-3-yl)-2-(methylthio)thiazole-5-carboxamide] | ≤25% (≤25% for 0-25% of IKZF1 protein reduction)
10 to 50 | O=C1CCC(NC(=O)c2cnc(CNC(=O)OCc3ccccc3)s2)C(=O)N1 (stereo not drawn) [Compound 74, benzyl ((5-((2,6-dioxopiperidin-3-yl)carbamoyl)thiazol-2-yl)methyl)carbamate] | ≤25% (≤25% for 0-25% of IKZF1 protein reduction)
< 5 | CC(C)(C)OC(=O)Nc1ncc(C(=O)NC2CCC(=O)NC2=O)s1 (stereo not drawn) [Compound 71, tert-butyl (5-((2,6-dioxopiperidin-3-yl)carbamoyl)thiazol-2-yl)carbamate] | ≤25% (≤25% for 0-25% of IKZF1 protein reduction)
< 5 | Nc1sccc1C(=O)NC1CCC(=O)NC1=O (stereo not drawn) [Compound 36, 2-amino-N-(2,6-dioxopiperidin-3-yl)thiophene-3-carboxamide] | ≤25% (≤25% for 0-25% of IKZF1 protein reduction)
< 5 | Nc1sc(Cl)cc1C(=O)NC1CCC(=O)NC1=O (stereo not drawn) [Compound 40, 2-amino-5-chloro-N-(2,6-dioxopiperidin-3-yl)thiophene-3-carboxamide] | ≤25% (≤25% for 0-25% of IKZF1 protein reduction)
< 5 | O=C1CCC(NC(=O)c2csc(-c3ccccc3)c2)C(=O)N1 (stereo not drawn) [Compound 57, N-(2,6-dioxopiperidin-3-yl)-5-phenylthiophene-3-carboxamide] | ≤25% (≤25% for 0-25% of IKZF1 protein reduction)
10 to 50 | CC(C)(C)c1ncc(C(=O)NC2CCC(=O)NC2=O)s1 (stereo not drawn) [Compound 73, 2-(tert-butyl)-N-(2,6-dioxopiperidin-3-yl)thiazole-5-carboxamide] | ≤25% (≤25% for 0-25% of IKZF1 protein reduction)
< 5 | COc1sc(Cl)cc1C(=O)NC1CCC(=O)NC1=O (stereo not drawn) [Compound 37, 5-chloro-N-(2,6-dioxopiperidin-3-yl)-2-methoxythiophene-3-carboxamide] | ≤25% (≤25% for 0-25% of IKZF1 protein reduction)
